The record followed here is EP0496162A2, “Peptide inhibitors of RAS-GAP interaction” (MERCK & CO. INC., priority 1990, dated 1992).

No end group written: not given here.

Assay [1] deals with T1, S. cerevisiae adenylyl cyclase (Ras Dependent, strain FlD reconstituted with purified Ras) (Saccharomyces cerevisiae, UniProt P08678).
T1 construct: Since these membranes contain adenylyl cyclase, but are lacking Ras protein; endogenous in cells; host or cells: membranes of S. cerevisiae strain FlD
Briefly: Yeast adenylyl cyclase assay, reconstitution of FlD membranes with purified Ras protein. Format: biochemical. The conditions noted are these: part B, FlD membranes with 5 µM purified Ras protein, peptide 10 µM. The text has this: (§1) Another Ras-dependent enzymatic assay was used to extend the observed ability of the peptides of the present invention to inhibit Ras function. This system, yeast adenylyl cyclase assay, measures the Ras-dependent conversion of ATP into cyclic AMP (cAMP). […] Furthermore, in S. cerevisiae, regulation of cAMP metabolism appears to be a major function of Ras. This assay system was used to extend the observed Ras inhibitory activity of the peptides of the present invention, to a Ras function which is GAP-unrelated. S. cerevisiae strain FlD lacks functional Ras proteins, however FlD cells have functional adenylyl cyclase in their cell membrane. […] Similarly, a recombinant S. cerevisiae strain MY1186, lacks yeast Ras proteins but expresses mammalian Ras protein which functions with adenylyl cyclase to regulate cAMP metabolisim in the yeast cells. […] In contrast, S. cerevisiae strain JC377-10B contains a mutant form of adenylyl cyclase which constitutively converts ATP into cAMP with or without Ras.
(§2) Ras peptides were tested at the indicated concentrations for inhibition of S. cerevisiae adenylyl cyclase activity. […] Ras-independent activity was assayed with membranes from strain JC377-10B (ras-minus, constitutively active adenylyl cyclase).
(§3) Yeast strain FlD, MY1186 and JC377-10B, were grown in YEHD medium at 30°C. Membrane fractions were prepared from cultures grown to an A₆₆₀ of 0.5 to 1.0 by glusulase digestion [Casperson, G.F. et al., (1983), J. Biol. Chem., 258, pp. 7911-7914], Dounce homogenization of the spheroplasts in buffer containing 50 mM sodium MES [2(N-morpholino) ethanesulfonic acid] […] Adenylyl cyclase assays (100-µL reaction volume) measured the conversion of [α-³²P]ATP to [³²P]cAMP at 30°C, using 50 µg to 100 µg of membrane protein in assays using membranes from yeast strains MY1186 and JC377-10B.. […] Since these membranes contain adenylyl cyclase, but are lacking Ras protein, stimulation of adenylyl cyclase activity may be measured following reconstitution with purified Ras complexed with GTP. […]

The target in assay [2] is T2, S. cerevisiae adenylyl cyclase (Ras Dependent, strain MY1186) (Saccharomyces cerevisiae, UniProt P08678).
T2 construct: S. cerevisiae strain MY1186 lacks endogenous yeast Ras, expresses viral Ha-Ras, and has a Ras-dependent adenylyl cyclase; endogenous in cells; host or cells: membranes of recombinant S. cerevisiae strain MY1186 (cyclase endogenous; Ha-Ras heterologously expressed)
In words: Yeast adenylyl cyclase assay, Ras-dependent, membranes from strain MY1186 (expresses mammalian Ras). The conditions noted are these: part A. Format: biochemical.
Excerpt: as §1, §2, §3

T2 sequence (P08678 whole entry): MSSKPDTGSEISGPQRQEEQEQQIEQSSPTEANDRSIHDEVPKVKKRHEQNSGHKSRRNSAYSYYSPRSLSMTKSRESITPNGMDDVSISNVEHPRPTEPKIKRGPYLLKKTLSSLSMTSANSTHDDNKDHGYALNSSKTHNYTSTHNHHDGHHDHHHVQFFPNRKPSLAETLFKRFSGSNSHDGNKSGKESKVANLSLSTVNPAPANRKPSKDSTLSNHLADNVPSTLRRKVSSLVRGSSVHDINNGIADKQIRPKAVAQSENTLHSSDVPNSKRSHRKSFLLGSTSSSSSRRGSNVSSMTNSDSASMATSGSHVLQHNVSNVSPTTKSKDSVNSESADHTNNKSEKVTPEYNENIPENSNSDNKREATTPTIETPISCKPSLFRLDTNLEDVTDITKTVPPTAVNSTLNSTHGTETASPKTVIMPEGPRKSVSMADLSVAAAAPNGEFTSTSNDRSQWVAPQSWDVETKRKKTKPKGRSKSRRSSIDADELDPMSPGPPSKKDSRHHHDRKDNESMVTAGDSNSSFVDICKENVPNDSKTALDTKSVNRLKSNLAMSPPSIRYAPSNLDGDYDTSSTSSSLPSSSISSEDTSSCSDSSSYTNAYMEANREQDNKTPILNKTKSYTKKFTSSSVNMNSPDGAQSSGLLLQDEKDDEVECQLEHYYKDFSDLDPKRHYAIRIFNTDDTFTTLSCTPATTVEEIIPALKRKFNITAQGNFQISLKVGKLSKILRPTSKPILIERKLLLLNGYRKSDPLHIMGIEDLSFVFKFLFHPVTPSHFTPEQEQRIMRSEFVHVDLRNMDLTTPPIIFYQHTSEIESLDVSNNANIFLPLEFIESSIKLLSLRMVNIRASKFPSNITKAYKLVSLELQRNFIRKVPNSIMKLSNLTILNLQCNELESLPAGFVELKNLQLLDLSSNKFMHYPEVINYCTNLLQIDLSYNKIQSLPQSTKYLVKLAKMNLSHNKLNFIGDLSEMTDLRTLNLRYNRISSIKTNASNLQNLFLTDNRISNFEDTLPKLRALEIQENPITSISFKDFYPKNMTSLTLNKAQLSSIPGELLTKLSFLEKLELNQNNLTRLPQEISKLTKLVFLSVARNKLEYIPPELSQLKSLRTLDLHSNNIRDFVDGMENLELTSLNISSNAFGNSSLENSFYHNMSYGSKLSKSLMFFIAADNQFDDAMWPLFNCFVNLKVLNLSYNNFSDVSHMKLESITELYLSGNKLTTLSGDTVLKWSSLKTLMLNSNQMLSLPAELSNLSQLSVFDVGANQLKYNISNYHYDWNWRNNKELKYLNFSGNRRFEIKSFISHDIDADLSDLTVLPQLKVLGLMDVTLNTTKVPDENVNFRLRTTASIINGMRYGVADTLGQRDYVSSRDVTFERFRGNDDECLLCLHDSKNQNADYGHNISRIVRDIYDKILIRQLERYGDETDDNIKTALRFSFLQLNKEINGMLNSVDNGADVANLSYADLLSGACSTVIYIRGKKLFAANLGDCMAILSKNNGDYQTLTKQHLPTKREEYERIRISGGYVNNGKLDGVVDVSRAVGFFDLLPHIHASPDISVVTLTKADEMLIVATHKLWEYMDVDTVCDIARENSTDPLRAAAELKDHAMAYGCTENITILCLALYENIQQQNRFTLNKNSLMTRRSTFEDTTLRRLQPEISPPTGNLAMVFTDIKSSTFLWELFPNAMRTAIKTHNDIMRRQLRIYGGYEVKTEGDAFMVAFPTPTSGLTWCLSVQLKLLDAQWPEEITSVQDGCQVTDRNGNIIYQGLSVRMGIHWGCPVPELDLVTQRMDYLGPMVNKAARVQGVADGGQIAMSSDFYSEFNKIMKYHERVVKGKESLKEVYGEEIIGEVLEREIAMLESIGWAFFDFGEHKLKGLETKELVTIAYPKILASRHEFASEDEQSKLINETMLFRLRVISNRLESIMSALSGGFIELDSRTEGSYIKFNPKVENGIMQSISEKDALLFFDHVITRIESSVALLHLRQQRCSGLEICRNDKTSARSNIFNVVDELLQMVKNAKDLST
T1 sequence (P08678 whole entry): as above

Consider `CC[C@H](C)[C@H](NC(=O)[C@H](CC(C)C)NC(=O)[C@H](CCC(N)=O)NC(=O)[C@@H](NC(=O)[C@@H](NC(=O)[C@H](CC(C)C)NC(=O)[C@H](C)NC(=O)[C@@H](N)CO)[C@@H](C)O)[C@@H](C)CC)C(=O)N[C@@H](CCC(N)=O)C(=O)N[C@@H](CC(N)=O)C(=O)N[C@@H](Cc1c[nH]cn1)C(=O)N[C@@H](Cc1ccccc1)C(=O)N[C@H](C(=O)N[C@@H](CC(=O)O)C(=O)N[C@@H](CCC(=O)O)C(=O)N[C@@H](Cc1ccc(O)cc1)C(=O)O)C(C)C` [Ras 17-32], for which the “%Inhibition of Adenylyl Cyclase Activity Ras Dependent” value (from here on “%Inhibition”) turned out to be 26 ± 2% in assay [1] and 34% in assay [2] (peptide 19 µM).
In the case of LIQNHFVDEYDPTIE [Ras 23-37], the “%Inhibition” value in assay [1] came out at 5 ± 1%; in assay [2] (peptide 100 µM) it was 2%.
In the case of SALTIQLIQNHFVDEYDPTIE [Ras 17-37], the “%Inhibition” value in assay [2] (peptide 40 µM) worked out at 58 ± 2%.
